# Measurements as given in ChEMBL document CHEMBL4616717, “Discovery of GNE-149 as a Full Antagonist and Efficient Degrader of Estrogen Receptor alpha for ER+ Breast Cancer” (ACS Med Chem Lett, 2020).
# The source made the active and inactive calls. The rule behind the calls is not given here.
# Columns and labels:
# [1] = tested on: MCF7; assay: Antiproliferative activity against human MCF7 cells assessed as reduction in cell viability after 72 hrs by Celltiter-Glo assay; format: functional, cell-based; details: MCF7, 72 h
# [2] = target: T1, Estrogen receptor (Homo sapiens, UniProt P03372); assay: Induction of ERalpha degradation in human MCF7 cells after 4 hrs by FITC/Hoechst staining based immunofluorescence imaging analysis; format: cell-based
# T1 sequence (P03372 whole entry): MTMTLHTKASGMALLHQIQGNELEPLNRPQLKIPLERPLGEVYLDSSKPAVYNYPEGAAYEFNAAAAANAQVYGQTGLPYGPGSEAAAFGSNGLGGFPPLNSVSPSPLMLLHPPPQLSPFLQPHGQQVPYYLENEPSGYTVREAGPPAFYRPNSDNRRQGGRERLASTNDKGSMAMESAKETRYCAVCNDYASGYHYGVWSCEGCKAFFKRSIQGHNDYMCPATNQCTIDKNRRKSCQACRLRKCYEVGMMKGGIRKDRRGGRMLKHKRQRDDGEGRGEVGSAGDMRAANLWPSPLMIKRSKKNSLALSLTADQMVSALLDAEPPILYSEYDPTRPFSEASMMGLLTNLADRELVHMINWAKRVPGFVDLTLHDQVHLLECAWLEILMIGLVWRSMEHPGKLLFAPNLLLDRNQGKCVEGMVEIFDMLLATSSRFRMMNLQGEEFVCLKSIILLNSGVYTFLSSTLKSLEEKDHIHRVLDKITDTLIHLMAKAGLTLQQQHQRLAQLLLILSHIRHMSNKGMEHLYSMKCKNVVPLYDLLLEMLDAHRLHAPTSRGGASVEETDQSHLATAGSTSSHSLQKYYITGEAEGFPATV
# [3] = Clearance in rat; format: ADME; details: in vivo
# [4] = Oral bioavailability in cynomolgus monkey; details: in vivo
# [5] = Oral bioavailability in dog; details: in vivo
# [6] = tested on: T47D; assay: Antiproliferative activity against human T47D cells assessed as reduction in cell viability; format: functional, cell-based
# [7] = Clearance in cynomolgus monkey; format: ADME, Macaca fascicularis; details: in vivo
# [8] = Clearance in dog; format: ADME, Canis lupus familiaris; details: in vivo
# [9] = target: T1, Estrogen receptor; assay: Agonist activity at ERalpha in human Ishikawa cells after 72 hrs by alkaline phosphatase assay; format: cell-based
# [10] = tested on: MCF7; assay: Antitumor activity against human MCF7 cells expressing wild-type ER xenografted in po dosed CRL:NU-Foxn1 mouse administered qd for 28 days in presence of 17-beta-estradiol pellets and measured twice per week by caliper method; format: functional, organism-based
# [11] = tested on: MCF7; assay: Antitumor activity against human MCF7 cells harboring ER Y537S mutant xenografted in CRL:NU-Foxn1 mouse assessed as tumor regression at 1 to 30 mg/kg, po qd for 21 days in presence of 17-beta estradiol pellets and measured twice per week by caliper method; format: functional, organism-based
# [12] = Oral bioavailability in rat; details: in vivo
# [13] = target: T2, Estrogen receptor (Rattus norvegicus) (UniProt P06211); assay: In vivo antagonist activity at ERalpha in CRL:CD(SD) rat assessed as inhibition of estradiol-induced increase in uterine wet weight at 10 mg/kg, po administered as MCT suspension for 3 days and measured at 4 hrs post last dose on day 4; format: functional, organism-based
# T2 sequence (whole entry): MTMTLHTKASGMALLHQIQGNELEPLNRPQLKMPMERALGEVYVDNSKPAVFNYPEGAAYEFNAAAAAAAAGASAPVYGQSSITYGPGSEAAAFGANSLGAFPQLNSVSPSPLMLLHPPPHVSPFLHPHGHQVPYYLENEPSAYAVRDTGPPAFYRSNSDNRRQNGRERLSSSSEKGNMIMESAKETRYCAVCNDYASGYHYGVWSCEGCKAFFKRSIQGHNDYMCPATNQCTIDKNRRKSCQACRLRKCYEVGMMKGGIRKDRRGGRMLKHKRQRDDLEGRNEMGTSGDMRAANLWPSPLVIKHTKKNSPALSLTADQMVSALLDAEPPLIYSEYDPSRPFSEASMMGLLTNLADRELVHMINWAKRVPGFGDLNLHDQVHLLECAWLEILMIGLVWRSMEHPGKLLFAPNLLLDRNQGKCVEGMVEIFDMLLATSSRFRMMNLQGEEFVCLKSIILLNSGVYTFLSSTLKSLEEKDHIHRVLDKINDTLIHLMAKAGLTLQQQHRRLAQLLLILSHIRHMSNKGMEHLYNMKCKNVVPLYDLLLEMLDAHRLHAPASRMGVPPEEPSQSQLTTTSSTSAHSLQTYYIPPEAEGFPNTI
# [14] = tested on: MCF7; assay: Antitumor activity against human MCF7 cells harboring ER Y537S mutant xenografted in po dosed CRL:NU-Foxn1 mouse assessed as tumor regression administered qd for 21 days in presence of 17-beta estradiol pellets and measured twice per week by caliper method; format: functional, organism-based
Compound,IC50 [1] [nM],IC50 [2] [nM],also measured
C[C@@H]1Cc2c([nH]c3ccccc23)[C@@H](c2c(F)cc(OCCN3CC(CF)C3)cc2F)N1CC(C)(C)F,1.6,,
C[C@@H]1Cc2c([nH]c3ccccc23)[C@@H](c2c(F)cc(OC[C@H](C)N3CC[C@@H](CF)C3)cc2F)N1CC(C)(C)F,1.7,,
CC1CN(CCOc2cc(F)c([C@@H]3c4[nH]c5ccccc5c4C[C@@H](C)N3CC(C)(C)F)c(F)c2)C1,0.9,0.19,
CC1=C(c2cccc(O)c2)[C@H](c2ccc(OCCN3CC(CF)C3)cc2)Oc2ccc(O)cc21,0.3,,clearance [3]: 81 mL/min/kg; bioavailability [4]: 5%; bioavailability [5]: 23%; IC50 [6]: 0.29 nM; clearance [7]: 17 mL/min/kg; clearance [8]: 24 mL/min/kg; Activity [9]: Not Active
C[C@@H]1Cc2c([nH]c3ccccc23)[C@@H](c2c(F)cc(OCCN3CC(F)(CF)C3)cc2F)N1CC(C)(C)F,2.7,0.38,
CC/C(=C(/c1ccc(/C=C/C(=O)O)cc1)c1ccc2[nH]ncc2c1)c1ccc(F)cc1Cl [BRILANESTRANT],44,,IC50 [6]: 27 nM
C[C@@H]1Cc2c([nH]c3ccccc23)[C@@H](c2c(F)cc(OCCN3CC[C@@H](CF)C3)cc2F)N1CC(C)(C)F,1.5,,
C[C@@H]1Cc2c([nH]c3ccccc23)[C@@H](c2c(F)cc(OCCN3CC(C(F)F)C3)cc2F)N1CC(C)(C)F,2.3,,
C[C@]12CC[C@@H]3c4ccc(O)cc4C[C@@H](CCCCCCCCC[S+]([O-])CCCC(F)(F)C(F)(F)F)[C@H]3[C@@H]1CC[C@@H]2O (stereo not given in full) [FULVESTRANT],2.6,,IC50 [6]: 3 nM; Activity [9]: Not Active

# More lines, main results first:
IC50 [1] [nM],IC50 [2] [nM],Compound,also measured
1.3,0.18,C[C@@H]1Cc2c([nH]c3ccccc23)[C@@H](c2c(F)cc(OC3CN(CCF)C3)cc2F)N1CC(C)(C)F,
5.6,0.52,C[C@@H]1Cc2c([nH]c3ccccc23)[C@@H](c2c(F)cc(OC3CN(CC4(CF)CC4)C3)cc2F)N1CC(C)(C)F,
0.84,0.15,C=CCN1CC(Oc2cc(F)c([C@@H]3c4[nH]c5ccccc5c4C[C@@H](C)N3CC(C)(C)F)c(F)c2)C1,
0.66,,C[C@@H]1Cc2c([nH]c3ccccc23)[C@@H](c2c(F)cc(OC3CN(CCCF)C3)cc2F)N1CC(C)(C)F,clearance [3]: 19 mL/min/kg; Activity [10]: Dose-dependent effect; bioavailability [4]: 28%; Activity [11]: Active; bioavailability [5]: 49%; bioavailability [12]: 31%; IC50 [6]: 0.69 nM; clearance [7]: 13 mL/min/kg; inhibition [13]: Active; clearance [8]: 8 mL/min/kg; Activity [14]: Dose-dependent effect; Activity [9]: Not Active
0.82,0.083,C#CCN1CC(Oc2cc(F)c([C@@H]3c4[nH]c5ccccc5c4C[C@@H](C)N3CC(C)(C)F)c(F)c2)C1,
6.4,0.55,C[C@@H]1Cc2c([nH]c3ccccc23)[C@@H](c2c(F)cc(OC3CN(C[C@H]4C[C@@H]4F)C3)cc2F)N1CC(C)(C)F,
3,,C[C@@H]1Cc2c([nH]c3ccccc23)[C@@H](c2c(F)cc(OC3CN(CCCCl)C3)cc2F)N1CC(C)(C)F,
8.5,0.39,C[C@@H]1Cc2c([nH]c3ccccc23)[C@@H](c2c(F)cc(OC3CN(CCCCF)C3)cc2F)N1CC(C)(C)F,
1.8,0.56,C[C@@H]1Cc2c([nH]c3ccccc23)[C@@H](c2c(F)cc(OC3CN(C[C@H]4C[C@H]4F)C3)cc2F)N1CC(C)(C)F,
1.5,,CCCN1CC(Oc2cc(F)c([C@@H]3c4[nH]c5ccccc5c4C[C@@H](C)N3CC(C)(C)F)c(F)c2)C1,
